EP1021178B1, “SELENOPHENE ANTI-TUMOR AGENTS” (Purdue Research Foundation, priority 1996, dated 1997)

Columns and labels:
Assay in all cases: NCI human tumor cell panel
SF-295 = settings: SF-295, read-out: Log10 LC50 (converted)
MDA-MB-435 = settings: MDA-MB-435, read-out: Log10 LC50 (converted)
OVCAR-3 = settings: OVCAR-3, read-out: Log10 LC50 (converted)
MALME-3M = settings: read-out: Log10 LC50 (converted)
EKVX = settings: read-out: Log10 LC50 (converted)
UO-31 = settings: UO-31, read-out: Log10 LC50 (converted)
HCC-2998 = format: cell-based; settings: HCC 2998, read-out: Log10 LC50 (converted)
Source text: (§1) Considering the diversity of tumors in terms of cell type, morphology, growth rate and other cellular characteristics, the U.S. National Cancer Institute (NCI) has developed a "disease-oriented" approach to antitumor activity screening (M.R. Boyd, in "Principle of Practice of Oncology" J.T. Devita, S. Hellman, S.A. Rosenberg (Eds.) Vol. 3, PPO Update, No. 10, 1989). This in vitro prescreening system is based on the measurement of antitumor cytotoxicity against human tumor cell line panels consisting of approximately 60 cell lines of major human tumors (including leukemia and slower growing tumor cells such as lung, colon, breast, skin, kidney, etc.). The most important advantage of the new in vitro screening panels is the opportunity to identify compounds that are selectively more cytotoxic to cells of slowly growing solid tumors than to rapidly growing leukemia cells.
(§2) The cytotoxic activity of the present selenophene compounds have been measured utilizing two different assays or screens. The first screen measures the cytotoxicity against a panel of sixty different human tumor cell lines. This assay provides data regarding the general cytotoxicity of an individual compound. In particular this type of assay is useful in identifying compounds which have enhanced cytotoxic activity against slow growing tumors as compared to faster growing tumor cells such as leukemia tumor cell lines. The identification of such compounds is critical since previously identified antitumor agents have low cytotoxic activity against slower growing tumors. […] The specificity of a cytotoxic compound for tumor cell lines relative to normal cells is an important characteristic of an effective antitumor agent.
(§3) Antitumor cytotoxicity data generated from the National Cancer Institute human tumor cell panels can also be expressed in a graphic pattern (mean graph) to display differential cell growth inhibition (K.D. Paull, R.H. Shoemaker, L. Hodes, A. Monks, D.A. Scudiero, L. Rubinstein, J. Plowman and M.R. Boyd, J. Nail. Cancer Inst., 81, 1088, 1989.) In the mean graph, the arithmetic mean of the logarithm of the GI50 (50% growth inhibition), TGI (total growth inhibition) or LC50 (50% lethal concentration) values is used as an anchor point. […] The length of a bar is indicative of differential cytotoxicity against a specific type of tumor cells or tumor panels.
(§4) The antitumor cytotoxicity of the selenophene compounds tested in those in vitro assays was measured by a microculture assay using either a 3-(4,5-dimethylthiazol-2-yl)-2,5-diphenyltetrazolium bromide (MTT) or sulforhodamine B (SRB) based assay. [M.R. Boyd in "Principles and Practices of Oncology," V.T. DeVita, Jr.]. The experiments were conducted at Purdue University in 96-well microtiter plates and the cytotoxic effects of the selenophene compounds on those cells were measured by cell count using a Coulter Z.F. counter (Hialeah, FL). The results are expressed as GI50, the concentration of drug at which cell numbers are reduced to 50% of control cell culture [T.C.K. Chan, C.J. Chang, N.M. Koonchanok and R.L. Geahlen, Biochem. Biophys. Res. Commun., 193, 1152, (1993); S. Hellman and S.A. Rosenberg (Eds.), Vol. 3, PPO Updates, Number 10, (1989).]
(§5) This in vitro microculture assay has an advantage over in vivo assays in that results are obtained within a week as opposed to several months. The MTT assay is based on the production of a dark blue formazan product by dehydrogenase in the mitochondria of live tumor cells after exposure to drug for 6 days [M.C. Alley, D.A. Scudiero, A. Monks, M.L. Hursey, M.J. Czerwinski, D.L. Fine, B.J. Abbott, J.G. Mayo, R.H. Shoemaker and M.R. Boyd, Cancer Res., 48, 589, 1988]. Thus, only live cells are stained and can be measured at 570 nm. […]

UACC-62 = format: cell-based; settings: UACC-62, read-out: Log10 LC50 (converted)
Source text: as §1, §2, §3, §4, §5

NCI-H522 = format: cell-based; settings: NCI-H522, read-out: Log10 LC50 (converted)
Source text: as §1, §2, §3, §4, §5

ACHN = format: cell-based; settings: read-out: Log10 LC50 (converted)
Source text: as §1, §2, §3, §4, §5

KM12 = format: cell-based; settings: KM12, read-out: Log10 LC50 (converted)
Source text: as §1, §2, §3, §4, §5

HS 578T = format: cell-based; settings: read-out: Log10 LC50 (converted)
Source text: as §1, §2, §3, §4, §5

CCRF-CEM = format: cell-based; settings: read-out: Log10 LC50 (converted)
Source text: as §1, §2, §3, §4, §5

M14 = format: cell-based; settings: M14, read-out: Log10 LC50 (converted)
Source text: as §1, §2, §3, §4, §5

MDA-N = format: cell-based; settings: read-out: Log10 LC50 (converted)
Source text: as §1, §2, §3, §4, §5

HOP-92 = format: cell-based; settings: HOP-92, read-out: Log10 LC50 (converted)
Source text: as §1, §2, §3, §4, §5

A498 = format: cell-based; settings: A498, read-out: Log10 LC50 (converted)
Source text: as §1, §2, §3, §4, §5

NCI-H23 = settings: NCI-H23, read-out: Log10 LC50 (converted)
SK-MEL-5 = settings: SK-MEL-5, read-out: Log10 LC50 (converted)
SNB-75 = settings: for CC50: SNB-75, read-out: Log10 LC50 (converted)
SNB-19 = settings: SNB-19, read-out: Log10 LC50 (converted)

SMILES	CC50 (SF-295) [µM]	CC50 (MDA-MB-435) [µM]	CC50 (OVCAR-3) [µM]	CC50 (MALME-3M) [µM]	CC50 (EKVX) [µM]	CC50 (UO-31) [µM]	CC50 (HCC-2998) [µM]	CC50 (UACC-62) [µM]	CC50 (NCI-H522) [µM]	CC50 (ACHN) [µM]	CC50 (KM12) [µM]	CC50 (HS 578T) [µM]	CC50 (CCRF-CEM) [µM]	CC50 (M14) [µM]	LC50 (50% lethal concentration) (MDA-N) [µM]	CC50 (HOP-92) [µM]	CC50 (A498) [µM]	CC50 (NCI-H23) [µM]	CC50 (SK-MEL-5) [µM]	CC50 (SNB-75) [µM]	other results
OCc1ccc(-c2ccc(-c3cccs3)[se]2)s1	> 100	> 100	> 100	> 100	> 100	> 100	9.77	> 100	> 100	> 100	> 100	> 100	> 100	> 100	> 100	> 100	0.0661	> 100	> 100	> 100	CC50 (SNB-19): > 100 µM
O=Cc1ccc(-c2ccc(-c3ccc(C=O)[se]3)[se]2)[se]1	> 100	> 100	> 100	> 100	> 100	> 100	> 100	> 100	95.5	> 100	> 100	> 100	> 100	> 100	> 100	> 100	6.76	> 100	> 100	> 100	CC50 (SNB-19): > 100 µM
O=Cc1ccc(-c2ccc(-c3ccc[se]3)[se]2)[se]1	53.7	> 100	30.9	64.6	> 100	53.7	38.9	66.1	42.7	46.8	45.7	53.7	> 100	72.4	64.6	63.1	6.31	69.2	37.2	> 100	CC50 (SNB-19): 87.1 µM
O=Cc1ccc(-c2ccc(-c3cccs3)[se]2)s1	> 100	> 100	> 100	> 100	> 100	> 100	20.9	85.1	> 100	> 100	> 100	> 100	> 100	> 100	> 100	> 100	0.933	> 100	> 100	> 100	IC (TGI) (SNB-75; SNB-75, read-out: Log10 TGI): 57.5 µM; CC50 (SNB-19): > 100 µM
